Measured values from ChEMBL document CHEMBL1201862, “PubChem BioAssay data set” (2004).
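Growth conditions: 96-well plates. Treatment: test compound, 48 hours, 5 concentrations. Analysis: linear interpolation between bracketing concentrations; unreached endpoints set to highest concentration. GI50: concentration for 50% inhibition of growth.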 Activity calls are given as the source filed them. No stated cut-off is given here; in the data, active = GI50 up to about 1.1 µM and inactive = higher. Where a SMILES comes first, the peptide text is derived from it. [ ]: non-standard residue; d: D form. The star is where a group is joined. ξ: configuration not given here. ξNMe2Val = CC(C)C(C(=O)*)N(C)C; NMeV = CN[CH](C(=O)O)C(C)C; NHBn = c1ccc(CN*)cc1

Key:
Assay in all cases: NCI tumour cell line growth inhibition, 48 h
RPMI-8226 = tested on: RPMI-8226
NCI-H522 = tested on: NCI-H522
HT-29 = tested on: HT-29
SF-295 = tested on: SF-295
SF-268 = tested on: SF-268
ACHN = tested on: ACHN
HCT-15 = tested on: HCT-15
HCT-116 = tested on: HCT-116
K562 = tested on: K562
HOP-62 = tested on: HOP-62
A549 = tested on: A549
Malme-3M = tested on: Malme-3M
SN12C = tested on: SN12C
MOLT-4 = tested on: MOLT-4
RXF 393 = tested on: RXF 393
NCI-H226 = tested on: NCI-H226
NCI/ADR-RES = tested on: NCI/ADR-RES
DU-145 = tested on: DU-145
MDA-MB-231 = tested on: MDA-MB-231
T47D = tested on: T47D

Row | SMILES | GI50 (RPMI-8226) | GI50 (NCI-H522) | GI50 (HT-29) | GI50 (SF-295) | GI50 (SF-268) | GI50 (ACHN) | GI50 (HCT-15) [µM] | GI50 (HCT-116) | GI50 (K562) | GI50 (HOP-62) | GI50 (A549) | GI50 (Malme-3M) | GI50 (SN12C) | GI50 (MOLT-4) | GI50 (RXF 393) | GI50 (NCI-H226) | GI50 (NCI/ADR-RES) | GI50 (DU-145) | GI50 (MDA-MB-231) | GI50 (T47D)
1 | [N-]=[N+]=Nc1ccc(S(=O)(=O)Oc2cc(OS(=O)(=O)c3ccc(N=[N+]=[N-])cc3)cc(OS(=O)(=O)c3ccc(N=[N+]=[N-])cc3)c2)cc1 | > 100 µM (inactive) | > 100 µM (inactive) | > 100 µM (inactive) | > 100 µM (inactive) | > 100 µM (inactive) | > 10 µM (inactive) | > 100 | > 100 µM (inactive) | > 100 µM (inactive) | > 100 µM (inactive) | > 100 µM (inactive) | > 100 µM (inactive) | > 10 µM (inactive) | > 100 µM (inactive) | > 100 µM (inactive) | > 10 µM (inactive) |  |  |  | 
2 | Cn1c2ccccc2c(=O)c2c(O)cc3c(c21)C=CC1(CCCC1)O3 | > 100 µM (inactive) | > 100 µM (inactive) | 2.67 µM (inactive) | 19 µM (inactive) | > 100 µM (inactive) | > 100 µM (inactive) | > 100 | > 100 µM (inactive) | 3.51 µM (inactive) | 85.3 µM (inactive) | > 100 µM (inactive) | > 100 µM (inactive) | > 100 µM (inactive) | > 100 µM (inactive) | 22.7 µM (inactive) | > 100 µM (inactive) | > 100 µM (inactive) | > 100 µM (inactive) | > 100 µM (inactive) | 
3 | CC(C)C(NC(=O)C(C(C)C)N(C)C)C(=O)N(C)C(C(=O)N1CCCC1C(=O)N1CCCC1C(=O)NCc1ccccc1)C(C)C (configuration not stated) (ξNMe2Val-V[NMeV]PP-NHBn; configuration not given here) | < 0.0001 µM (active) | < 0.01 µM (active) | < 0.0001 µM (active) | < 0.0001 µM (active) | < 0.0001 µM (active) | < 0.0001 µM (active) | < 0.0001 | < 0.0001 µM (active) | 0.001 µM (active) | < 0.0001 µM (active) | < 0.0001 µM (active) | < 0.01 µM (active) | < 0.0001 µM (active) | < 0.0001 µM (active) | 0.0175 µM (active) | < 0.0001 µM (active) | 0.00179 µM (active) | < 0.0001 µM (active) | < 0.0001 µM (active) | 
4 | CCC1CN2CCc3cc(OC)c(OC)cc3C2CC1CC1c2cc(OC)c(OC)cc2CCN1C(=O)C1CCCN1 (configuration not stated) | 50.5 µM (inactive) | 16.3 µM (inactive) | 27.4 µM (inactive) | 41 µM (inactive) | 32.8 µM (inactive) | 28.7 µM (inactive) | 31.7 | 19.5 µM (inactive) | 20.5 µM (inactive) | 32.5 µM (inactive) | 26.4 µM (inactive) | 21.4 µM (inactive) | 37.5 µM (inactive) | 32.4 µM (inactive) | 33.5 µM (inactive) | 31.3 µM (inactive) |  |  |  | 
5 | CCN(CC)CCCN(c1cc(OC)cc2nccnc12)S(=O)(=O)c1ccc(C)cc1 | > 100 µM (inactive) | > 100 µM (inactive) | > 100 µM (inactive) | > 100 µM (inactive) | > 100 µM (inactive) | > 100 µM (inactive) | > 100 |  | > 100 µM (inactive) | > 100 µM (inactive) | > 100 µM (inactive) | > 100 µM (inactive) | > 100 µM (inactive) | 74.6 µM (inactive) | 41.1 µM (inactive) | > 100 µM (inactive) |  |  |  | 
6 | CCC(C)C(=O)OCC(=O)c1ccc(-c2ccccc2)cc1 (configuration not stated) | 24.5 µM (inactive) | 22.8 µM (inactive) | 34.6 µM (inactive) | 59.8 µM (inactive) | 41.4 µM (inactive) | > 100 µM (inactive) | 18.1 | 68.7 µM (inactive) | 41 µM (inactive) | > 100 µM (inactive) | 44.1 µM (inactive) | 29.1 µM (inactive) | > 100 µM (inactive) | 46.9 µM (inactive) |  |  | 76.9 µM (inactive) | 52.2 µM (inactive) | 78.9 µM (inactive) | 22.3 µM (inactive)
7 | COc1ccc(N2C(=O)CSC2c2cc(OC)c(OC)c(OC)c2)cc1 (configuration not stated) | 27.5 µM (inactive) | 14.1 µM (inactive) | 21.6 µM (inactive) | 22.6 µM (inactive) | 31.8 µM (inactive) | 20.7 µM (inactive) | 16 | 16.8 µM (inactive) | 11.9 µM (inactive) |  | 25.5 µM (inactive) | 23.7 µM (inactive) | 25.1 µM (inactive) | 21.4 µM (inactive) |  | 62.7 µM (inactive) | 22.2 µM (inactive) | 14.5 µM (inactive) | 26.5 µM (inactive) | 
8 | COC(=O)[C@@]12C3=NO[C@]1(C(=O)OC)C(O[Si](C)(C)C(C)(C)C)[C@@H](OC(C)=O)[C@@H](OC(C)=O)[C@@H]2[C@@H](OCc1ccccc1)CC3 (some centres not stated) | 4.42 µM (inactive) | 3.86 µM (inactive) | > 72.3 µM (inactive) | 5.68 µM (inactive) | 5.79 µM (inactive) | 4.44 µM (inactive) | > 30.9 | 5.07 µM (inactive) | 5.26 µM (inactive) | > 100 µM (inactive) | 28.3 µM (inactive) | 7.28 µM (inactive) | > 100 µM (inactive) | 5.14 µM (inactive) | 3.06 µM (inactive) | 14.9 µM (inactive) |  |  |  | 
9 | O=P1(Oc2ccccc2)N=P(c2ccccc2)(c2ccccc2)C=C(c2ccc(Cl)cc2)N1 (configuration not stated) | 3.03 µM (inactive) | 10.1 µM (inactive) | 4.29 µM (inactive) | 6.92 µM (inactive) | 11.6 µM (inactive) | 13 µM (inactive) | 9.84 | 7.23 µM (inactive) | 5.43 µM (inactive) | 16.4 µM (inactive) | 3.97 µM (inactive) | 15.5 µM (inactive) | 16.6 µM (inactive) | 5.18 µM (inactive) |  |  | 10.9 µM (inactive) | 13.9 µM (inactive) | 16.5 µM (inactive) | 5.19 µM (inactive)
10 | CC(C)(C)c1cc2c3c(c1)c(=O)c1cccc4c(O)c5cccc(c2=O)c5c-3c41 |  | > 100 µM (inactive) | 27.7 µM (inactive) | 60.1 µM (inactive) | > 100 µM (inactive) | > 100 µM (inactive) | 48.5 | 59.7 µM (inactive) | 38.5 µM (inactive) | 47 µM (inactive) | > 100 µM (inactive) | > 100 µM (inactive) | > 100 µM (inactive) | 38.1 µM (inactive) | 34 µM (inactive) | > 100 µM (inactive) |  |  |  | 
11 | COc1cc(/C=C/c2ccc(Br)cc2)cc(OC)c1OC | 3.99 µM (inactive) | 11.8 µM (inactive) | 6.44 µM (inactive) | 6.73 µM (inactive) | 9.12 µM (inactive) | 18.9 µM (inactive) | 7 | 4.55 µM (inactive) | 3.71 µM (inactive) | 13.7 µM (inactive) | 11.7 µM (inactive) | 6.08 µM (inactive) | 18.7 µM (inactive) | 3.21 µM (inactive) | 15.7 µM (inactive) | 15.9 µM (inactive) |  |  |  | 
12 | NNC(=O)C(=O)NN=C(C(Cl)(Cl)CO)C(Cl)(Cl)CO | 27.4 µM (inactive) | 12.1 µM (inactive) | 37.3 µM (inactive) | 66.1 µM (inactive) | 36.4 µM (inactive) | 31.3 µM (inactive) | 25.7 | 20.6 µM (inactive) | 36.7 µM (inactive) | 70.8 µM (inactive) | > 100 µM (inactive) | 19.8 µM (inactive) | > 100 µM (inactive) | 21.2 µM (inactive) | 21.9 µM (inactive) | > 100 µM (inactive) |  |  |  | 
13 | CC(=O)Oc1cc(S(=O)(=O)Nc2n[nH]c(Nc3ccc(C)cc3)n2)c(S)cc1Cl | > 100 µM (inactive) | 92 µM (inactive) | > 100 µM (inactive) | > 100 µM (inactive) |  | 54.8 µM (inactive) | > 100 | > 100 µM (inactive) | 68.1 µM (inactive) |  | > 100 µM (inactive) | > 100 µM (inactive) | > 100 µM (inactive) | 83.2 µM (inactive) |  |  | > 100 µM (inactive) | > 100 µM (inactive) | 51.1 µM (inactive) | > 100 µM (inactive)
14 | O=C(Nc1ccccc1[N+](=O)[O-])c1ccccc1 | 80.9 µM (inactive) | 56.9 µM (inactive) | > 100 µM (inactive) | > 100 µM (inactive) | > 100 µM (inactive) | > 100 µM (inactive) | > 100 | > 100 µM (inactive) | > 100 µM (inactive) | 67.5 µM (inactive) | > 100 µM (inactive) | > 100 µM (inactive) | > 100 µM (inactive) | 53 µM (inactive) | 37.3 µM (inactive) | 83.8 µM (inactive) |  |  |  | 
15 | COc1cc2c(c(OC)c1OC)C(=O)c1c(O)cc(C)c(OC)c1C2=O | > 100 µM (inactive) | 57.1 µM (inactive) | > 100 µM (inactive) | 82.6 µM (inactive) | > 100 µM (inactive) | 46 µM (inactive) | > 100 | 99.1 µM (inactive) | > 10 µM (inactive) | 50.7 µM (inactive) | 77.3 µM (inactive) | > 100 µM (inactive) | > 100 µM (inactive) | > 100 µM (inactive) |  | > 100 µM (inactive) | 57.1 µM (inactive) | > 100 µM (inactive) | 55 µM (inactive) | 
16 | C[n+]1c(-c2ccc(/C=N/NC(=N)N/N=C/c3ccc(-c4cn5cc(Cl)ccc5[n+]4C)cc3)cc2)cn2cc(Cl)ccc21 | > 100 µM (inactive) | > 100 µM (inactive) | > 100 µM (inactive) | > 100 µM (inactive) | > 100 µM (inactive) | > 100 µM (inactive) | > 100 | > 100 µM (inactive) | > 100 µM (inactive) | > 100 µM (inactive) | > 100 µM (inactive) |  | > 100 µM (inactive) | > 100 µM (inactive) |  |  | > 100 µM (inactive) |  | > 100 µM (inactive) | > 100 µM (inactive)
